# Data from patent US20060263502A1, “Absorbent material for use in humid conditions” (priority 2003, published 2006).
# Assay: Sensitivity to moisture of tetrazine compounds in polystyrene
# Type: physicochemical
# Details: 0.2M in polystyrene film about 130 μm; relative humidity 93% at 25° C.; at least 42 days; absorbance 500-550 nm
# Method: The depletion of the tetrazine compound, as measured by % absorbance change, was used to indicate the sensitivity to moisture of the tetrazine compounds.
# Compositions were prepared by blending the tetrazine compounds at a concentration of 0.2M into polystyrene. Each composition was then compression moulded to form a film having a thickness of about 130 μm. Each film sample was then mounted in a cell holder and the maximum absorbance between 500-550 nm measured. The cell holders containing the film samples were then placed on a mesh platform in a 550 mL squat glass jar fitted with a screw cap and polypropylene wad seal. To achieve a relative humidity of 93% at 25° C., a saturated solution of potassium nitrate covered the bottom of the jars (approx. 10 mm below the mesh platform). The jars were stored in a controlled-temperature room at 25° C.
# At intervals of several days for at least 42 days, samples were in turn removed from their jars, and the maximum absorbance recorded between 500-550 nm, before immediately returning them to the controlled-temperature room in their sealed jars.
compound,measurement,value
"COC(=O)c1nnc(C(=O)OC)nn1 [DMTD, dimethyl-1,2,4,5-tetrazine-3,6-dicarboxylate, reference compound]","sensitivity to moisture (depletion of the tetrazine compound, as measured by % absorbance change)",highly unstable to moisture
